Columns and labels:
[1] = system: recombinant Y. lipolytica (Y. lipolytica-GDH2); assay: Intracellular glutamate content of recombinant strain fermented with L-methionine imide; type: cell-based, Yarrowia lipolytica
Method: Determination of GDH catalytic activity and intracellular amino acid content: cells were collected by centrifugation in the exponential growth phase and washed by 0.9% saline, then suspended by 10 mL buffer (0.1 M KH2PO4-K2HPO4, 1 mM EDTA, 0.01 mM DTT, pH 7.5). Pickling glass beads was added for grinding for 5 min at 4° C., and then centrifuged at 13000×g for 10 min. The supernatant was used for the determination of catalytic activity of GDH and the intracellular amino acid content.
Intracellular glutamate and glutamine was determinated by the following steps: 200 μl cell disruption supernatant and 800 μL 5% trichloroacetic acid was sequentially added to an 1 mL EP tube and standed for 5 min. 1 mL sample was filtered by 0.22 μm aqueous filter head and then centrifuged at 10000 rpm for 10 min. The amino acid content of the treated sample was measured by HPLC.
The HPLC conditions were as follows: pre-column derivatization of sample was carried out by […] (OPA) and 9-Fluorenylmethyl Chloroformate. […]
The wild type Y. lipolytica WSH-Z06 and the recombinant strain Y. lipolytica-GDH2 were incubated in 500 mL flasks with 50 mL fermentation medium at 28° C., 200 rpm for 96 hours at the same time. […] The glutamate contents were quantified by the methods described above.

[2] = system: recombinant Y. lipolytica (Y. lipolytica-GDH2); assay: Extracellular α-KG accumulation of recombinant strain fermented with L-methionine imide; type: cell-based, Yarrowia lipolytica
Method: Fermentation medium: 36.1 mg·L^−1 L-methionine imine, 100 g·L^−1 glycerol, 3 g·L^−1 (NH4)2SO4, 3 g·L^−1 KH2PO4, 1.2 g·L^−1 MgSO4·7H2O, 0.5 g·L^−1 NaCl, 0.1 g·L^−1 K2HPO4, 2×10^−7 g·L^−1 thiamine hydrochloride, pH 4.5, and then sterilized at 115° C. for 15 min. CaCO3 sterilized at 121° C. for 30 min was added to 20 g·L^−1 before inoculation.
Extracellular α-KG was quantified by HPLC. Appropriate supernatant of fermentation broth centrifuged at 13000×g was diluted 50-fold with ultrapure water and filtrated by 0.22 μm filter for HPLC analysis. The column was Aminex HPX-87H ion exchange column and 5 mmol·L^−1 sulfuric acid solution (550 μL concentrated sulfuric acid volumed to 2 L) filtrated by 0.22 μm filter and degassed was used as mobile phase. The velocity of flow was 0.6 mL·min^−1 with a column temperature at 35° C. and a injection volume of 10 μL. The wavelength of UV detector was 210 nm.
α-KG was produced as the method described above. The wild type Y. lipolytica WSH-Z06 and the recombinant strain Y. lipolytica-GDH2 were incubated in 500 mL flasks with 50 mL fermentation medium containing L-methionine imide at 28° C., 200 rpm for 144 hours at the same time to accumulate α-KG extracellular.

## CSCC[C@H](N)C(N)=O [L-methionine imide]
[1]; 0.2 mM L-methionine imide added during fermentation of the recombinant strain
  content of glutamate intracellular: 0.99 μmol per mg dry cells weight (DCW)
[1]; 0.2 mM L-methionine imide, recombinant strain, versus wild type strain
  increase of intracellular glutamate content: 86.3%
[2]; 0.2 mM L-methionine imide, versus wild type strain
  increase of extracellular α-KG accumulation: 32.4%
[2]; fermentation medium containing L-methionine imide (0.2 mM), 28° C., 200 rpm, 144 hours
  accumulation of α-KG extracellular: 19.2 g/L

Source: patent US20160138057A1, “Methods for enhancing alpha-ketoglutarata production in Yarrowia lipolytica” (priority 2014, published 2016)
